Measurements: patent publication US5886026A, “Anti-angiogenic compositions and methods of use” (priority 1994, dated 1999)

How the values were obtained:
Format in all cases: physicochemical
[1] = Methotrexate release from PCL discs; details: high MePEG concentrations
Protocol: A known weight of a polymer (typically a 2.5 mg pellet) is added to a 15 ml test tube containing 14 ml of a buffer containing 10 mm Na2 HPO4 --NaH2 PO4, 0.145 m NaCl and 0.4 g/l bovine serum albumin. The tubes are capped and tumbled at 37° C. At specific times all the 14 ml of the liquid buffer are removed and replaced with fresh liquid buffer.
The aqueous phase is then removed and the methylene chloride phase is dried under nitrogen. The residue is then dissolved in 60% acetonitrile: 40% water and the solution is injected on to a HPLC system using the following conditions: C8 column (Beckman Instruments USA), mobile phase of 58%:5%:37% acetonitrile: methanol: water at a flow rate of […].
For MTX the collected buffer is applied directly to the HPLC column with no need for extraction in methylene chloride. MTX is analyzed at 302 nm. For Vanadium containing compounds the liquid buffer is analyzed directly using a UV/VIS spectrometer in the 200 to 300 nm range.
Methotrexate ("MTX"; Sigma Chemical Co.) is ground in a pestle and mortar to reduce the particle size to below 5 microns. It is then mixed as a dry powder with polycaprolactone (molecular wt 18000 Birmingham Polymers, Ala. USA). The mixture is heated to 65° C. for 5 minutes and the molten polymer/methotrexate mixture is stirred into a smooth paste for 5 minutes. […]

[2] = Vanadyl sulfate release from PCL
Protocol: Vanadyl Sulfate (Fisher Scientific) is first ground in a pestle and mortar to reduce the particle size, then dispersed into melted PCL as described above for MTX. It is then taken up into a syringe to solidify and is ready for use.
Drug release was determined essentially as described above in Example 33, except that a 65 mg pellet of a 10% w/w VOSO4 :PCL was suspended in 10 ml of water and the supernatant analyzed for released Vanadyl Sulphate using UV/Vis absorbance spectroscopy of the peak in the 200 to 300 nm range.

[3] = Encapsulation of sodium suramin in ELVAX microspheres
Protocol: One milliliter of 5% ELVAX (poly(ethylene-vinyl acetate) cross-linked with 5% vinyl acetate) in dichloromethane ("DCM") is mixed with a fixed weight of sub-micron ground sodium suramin. This mixture is injected into 5 ml of 5% Polyvinyl Alcohol ("PVA") in water in a 30 ml flat bottomed test tube. Tubes containing different weights of the drug are then suspended in a multi-sample water bath at 40° for 90 minutes with automated stirring. The mixtures are removed, and microsphere samples taken for size analysis. Tubes are centrifuged at 1000 g for 5 min. The PVA supernatant is removed and saved for analysis (nonencapsulated drug). The microspheres are then washed (vortexed) in 5 ml of water and recentrifuged. The 5 ml wash is saved for analysis (surface bound drug). Microspheres are then wetted in 50 μl of methanol, and vortexed in 1 ml of DCM to dissolve the ELVAX. The microspheres are then warmed to 40° C., and 5 ml of 50° C. water is slowly added with stirring. This procedure results in the immediate evaporation of DCM, thereby causing the release of sodium suramin into the 5 ml of water.
All samples were assayed for drug content by quantification of fluorescence. Briefly, sodium suramin absorbs uv/vis with a lambda max of 312 nm. This absorption is linear in the 0 to 100 μg/ml range in both water and 5% PVA. […] This fluorescence is quantifiable in the 0 to 25 μg/ml range.

CN(Cc1cnc2nc(N)nc(N)c2n1)c1ccc(C(=O)N[C@@H](CCC(=O)O)C(=O)O)cc1 [MTX]
MTX release [1]: substantial amounts of MTX can be released from the polymer

O=S(=O)([O-])[O-].[O]=[V+2] [VOSO4, vanadyl sulfate]
VOSO4 released ([2]; 6 hours, 65 mg pellet 10% w/w in water): 1 mg
VOSO4 released ([2]; 2 days, 65 mg pellet 10% w/w in water): 3 mg
VOSO4 released ([2]; day 6, 65 mg pellet 10% w/w in water): 5 mg

Cc1ccc(C(=O)Nc2ccc(S(=O)(=O)O)c3cc(S(=O)(=O)O)cc(S(=O)(=O)O)c23)cc1NC(=O)c1cccc(NC(=O)Nc2cccc(C(=O)Nc3cc(C(=O)Nc4ccc(S(=O)(=O)O)c5cc(S(=O)(=O)O)cc(S(=O)(=O)O)c45)ccc3C)c2)c1 [suramin]
drug encapsulated in 50 mg of ELVAX ([3]; 50 mg ELVAX): 50 µg
% encapsulation ([3]; ELVAX microspheres): < 1%
